Data: ChEMBL document CHEMBL1201862, “PubChem BioAssay data set” (2004)
Calls of active or inactive are those of the source.

Key:
[1] = molecular target: T1, Replicative DNA helicase DnaB (Mycobacterium tuberculosis, UniProt P9WMR3); test: DnaB intein splicing inhibitors, dose response, biochemical, cell-free fluorescence (AID 449749); type: functional
T1 sequence (P9WMR3 whole entry): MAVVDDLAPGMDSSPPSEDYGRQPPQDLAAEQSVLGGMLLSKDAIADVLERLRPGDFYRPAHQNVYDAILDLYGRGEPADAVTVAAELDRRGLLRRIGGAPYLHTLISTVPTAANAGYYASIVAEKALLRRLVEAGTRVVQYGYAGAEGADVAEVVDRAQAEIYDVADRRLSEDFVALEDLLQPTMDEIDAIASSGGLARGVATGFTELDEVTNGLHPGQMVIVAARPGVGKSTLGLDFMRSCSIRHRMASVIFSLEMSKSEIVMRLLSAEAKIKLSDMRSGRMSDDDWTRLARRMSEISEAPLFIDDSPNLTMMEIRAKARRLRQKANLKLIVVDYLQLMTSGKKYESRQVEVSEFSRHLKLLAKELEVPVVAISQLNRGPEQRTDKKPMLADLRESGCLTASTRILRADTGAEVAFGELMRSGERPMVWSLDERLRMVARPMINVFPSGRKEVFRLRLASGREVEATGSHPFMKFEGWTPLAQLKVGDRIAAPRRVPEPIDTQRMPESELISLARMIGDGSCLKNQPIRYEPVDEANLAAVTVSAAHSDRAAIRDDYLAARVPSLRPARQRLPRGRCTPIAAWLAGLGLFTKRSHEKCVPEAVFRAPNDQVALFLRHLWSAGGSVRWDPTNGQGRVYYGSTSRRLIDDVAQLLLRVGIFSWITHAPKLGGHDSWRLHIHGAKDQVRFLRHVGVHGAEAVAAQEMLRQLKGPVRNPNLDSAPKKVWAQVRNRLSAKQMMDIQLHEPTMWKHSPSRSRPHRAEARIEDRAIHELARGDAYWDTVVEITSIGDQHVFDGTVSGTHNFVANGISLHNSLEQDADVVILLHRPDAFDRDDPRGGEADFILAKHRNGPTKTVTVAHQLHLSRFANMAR

Protein RecA = molecular target: T2, Protein RecA (Mycobacterium tuberculosis, UniProt P9WHJ3); test: Fluorescence Cell-Free Homogeneous Dose Retest to Identify Inhibitors of RecA-Intein Splicing Activity. [Related pubchem assays (depositor defined):AID2097, AID2223, AID489010, AID492950]; type: functional
T2 sequence (P9WHJ3 whole entry): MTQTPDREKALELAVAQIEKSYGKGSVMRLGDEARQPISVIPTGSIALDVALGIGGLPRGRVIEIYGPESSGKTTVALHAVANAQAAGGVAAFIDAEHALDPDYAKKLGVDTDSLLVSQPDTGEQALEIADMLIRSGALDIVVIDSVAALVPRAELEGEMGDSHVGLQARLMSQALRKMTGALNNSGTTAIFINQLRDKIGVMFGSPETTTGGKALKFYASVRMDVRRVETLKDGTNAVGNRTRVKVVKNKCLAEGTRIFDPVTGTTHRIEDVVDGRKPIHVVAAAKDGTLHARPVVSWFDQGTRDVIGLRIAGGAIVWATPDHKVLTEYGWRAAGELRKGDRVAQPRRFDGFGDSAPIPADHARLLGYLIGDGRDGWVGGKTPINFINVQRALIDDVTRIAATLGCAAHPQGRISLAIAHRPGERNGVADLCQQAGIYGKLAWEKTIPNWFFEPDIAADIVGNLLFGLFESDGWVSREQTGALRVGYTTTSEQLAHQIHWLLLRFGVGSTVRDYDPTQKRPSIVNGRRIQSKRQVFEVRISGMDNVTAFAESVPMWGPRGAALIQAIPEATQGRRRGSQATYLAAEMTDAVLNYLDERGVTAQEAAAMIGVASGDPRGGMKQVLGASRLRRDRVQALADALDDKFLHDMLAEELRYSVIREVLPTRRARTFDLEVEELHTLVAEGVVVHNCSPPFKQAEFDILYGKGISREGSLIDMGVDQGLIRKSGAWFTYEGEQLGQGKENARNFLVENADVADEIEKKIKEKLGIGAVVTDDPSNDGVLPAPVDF

Cytochrome P450 2C19 = Cytochrome P450 2C19 (Homo sapiens, UniProt P33261); test: Cytochrome panel assay with activity outcomes. Panel member name: p450-cyp2c19 Compounds with AC50 equal or less than 10 uM are considered active; type: functional; conditions: read-out: AC50
[2] = growth suppression of PTEN-null colon cells, dose response, cell-based, HCT116 PTEN knockout (AID 1047); type: functional;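 note: HCT116 colon tumor cells with PTEN knocked out; cells exposed to compound for 60 hours before readout; potency for loss of cell viability measured by luminescence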
[3] = Luminescence Cell-Based Dose Confirmation HTS to Identify Inhibitors of Platelet Dense Granule Release. [Related pubchem assays: 1663 (Primary HTS), 1678 (Summary of Project)]; type: functional
[4] = cytotoxicity in HEK-293T cells, dose response, cytotoxicity control for TCR NF-kB inhibitor project, luminescence, T-cell screen hits (AID 489026); type: functional, cell-based;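 note: cells exposed to compound about 14 hours before the viability readout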
[5] = growth suppression of beta-catenin-knockout colon cells, dose response, cell-based, HCT116, human colon tumor (AID 1045); type: functional;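 note: HCT116 colon tumor cells with beta catenin knocked out; cells exposed to compound for 60 hours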
[6] = molecular target: Luciferin 4-monooxygenase (Photinus pyralis, UniProt P08659); test: firefly luciferase enzyme inhibitors, dose response, biochemical, luminescence (AID 1891)
[7] = molecular target: FAD-linked sulfhydryl oxidase ALR (Homo sapiens, UniProt P55789); test: inhibitors of human ALR sulfhydryl oxidase, dose response, biochemical, H2O2 detection, luminescence, cherry-pick (AID 493248)
INS1 = test: beta cell apoptosis inhibitors, cytokine rescue, dose response, luminescence, retest (AID 449756); type: functional, cell-based; conditions: Rattus norvegicus;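 note: cell death triggered by IL-1 beta plus TNF-alpha plus IFN-gamma mixture; protective hits raise ATP signal compared with cytokine alone wells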
[8] = Luminescence Cell-Based Dose Retest to Confirm Inhibitors of Cancer Stem Cells. [Related pubchem assays (depositor defined):AID2717, AID2721]; type: functional; conditions: Homo sapiens
[9] = microbe, parasite or virus in culture; type: functional; conditions: Mycobacterium tuberculosis
H9c2 = test: cells; type: functional, cell-based; conditions: Rattus norvegicus, H9c2, Myocardium;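 note: confirmatory concentration-response retest of ultra-high-throughput screening hits for modulation of myocardial damage; cell death induced by hydrogen peroxide oxidative stress; compound pretreatment for 60 min then peroxide exposure for 2 h; potency is for protecting the cells against peroxide damage rather than for killing them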
Vero = test: cells; type: functional; conditions: Chlorocebus sabaeus
[10] = molecular target: T3, Polyadenylate-binding protein 1 (Homo sapiens, UniProt P11940); test: PABP1 MLLE–PAM2 interaction inhibitors, dose response, miRNA deadenylation inhibitor project, biochemical, fluorescence polarization, Cy5-PAM2 peptide, secondary (AID 602260); type: functional; conditions: read-out: IC50_Mean
[11] = molecular target: T3, Polyadenylate-binding protein 1; test: PABP1 MLLE–PAM2 binding inhibitor potency, dose response, biochemical, fluorescence polarization, FITC-PAM2 peptide (AID 602259); type: functional; conditions: read-out: IC50_Mean

T3 sequence (P11940 whole entry): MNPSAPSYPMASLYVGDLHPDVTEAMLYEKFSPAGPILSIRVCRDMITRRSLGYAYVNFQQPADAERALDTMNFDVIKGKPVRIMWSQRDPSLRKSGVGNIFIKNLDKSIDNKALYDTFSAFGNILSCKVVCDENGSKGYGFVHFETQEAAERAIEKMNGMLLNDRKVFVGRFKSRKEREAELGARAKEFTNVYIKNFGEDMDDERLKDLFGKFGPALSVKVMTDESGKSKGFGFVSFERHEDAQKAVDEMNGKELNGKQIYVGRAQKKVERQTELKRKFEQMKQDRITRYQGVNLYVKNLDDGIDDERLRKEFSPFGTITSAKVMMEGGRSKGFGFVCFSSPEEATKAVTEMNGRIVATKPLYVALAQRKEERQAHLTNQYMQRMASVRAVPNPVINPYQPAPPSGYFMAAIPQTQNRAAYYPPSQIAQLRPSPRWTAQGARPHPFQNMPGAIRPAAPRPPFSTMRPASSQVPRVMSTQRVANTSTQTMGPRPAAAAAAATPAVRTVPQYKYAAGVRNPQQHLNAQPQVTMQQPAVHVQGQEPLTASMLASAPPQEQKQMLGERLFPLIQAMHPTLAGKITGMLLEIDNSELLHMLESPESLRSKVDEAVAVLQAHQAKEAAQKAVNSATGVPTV
Sequence of Luciferin 4-monooxygenase (P08659 whole entry): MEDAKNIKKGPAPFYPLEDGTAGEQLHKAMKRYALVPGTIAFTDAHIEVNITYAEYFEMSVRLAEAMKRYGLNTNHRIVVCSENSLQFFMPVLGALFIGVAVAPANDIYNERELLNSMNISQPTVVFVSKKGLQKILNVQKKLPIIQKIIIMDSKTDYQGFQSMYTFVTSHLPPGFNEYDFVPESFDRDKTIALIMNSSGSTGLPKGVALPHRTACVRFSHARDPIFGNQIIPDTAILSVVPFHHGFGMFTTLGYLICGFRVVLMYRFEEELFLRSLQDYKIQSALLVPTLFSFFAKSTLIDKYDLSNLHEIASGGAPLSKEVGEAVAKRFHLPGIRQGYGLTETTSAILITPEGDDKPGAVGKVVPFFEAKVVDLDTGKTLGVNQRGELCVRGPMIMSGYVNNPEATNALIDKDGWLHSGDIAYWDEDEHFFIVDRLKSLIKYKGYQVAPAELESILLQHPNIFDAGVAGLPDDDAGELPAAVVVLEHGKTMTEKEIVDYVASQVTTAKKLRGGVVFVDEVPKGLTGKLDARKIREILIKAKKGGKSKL
Sequence of FAD-linked sulfhydryl oxidase ALR (P55789 whole entry): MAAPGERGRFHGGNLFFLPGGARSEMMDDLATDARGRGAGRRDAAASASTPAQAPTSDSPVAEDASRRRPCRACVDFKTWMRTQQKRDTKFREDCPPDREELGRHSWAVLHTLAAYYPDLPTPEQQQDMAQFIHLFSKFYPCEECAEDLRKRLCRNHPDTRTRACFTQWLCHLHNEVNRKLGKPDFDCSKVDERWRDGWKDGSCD
Sequence of Cytochrome P450 2C19 (P33261 whole entry): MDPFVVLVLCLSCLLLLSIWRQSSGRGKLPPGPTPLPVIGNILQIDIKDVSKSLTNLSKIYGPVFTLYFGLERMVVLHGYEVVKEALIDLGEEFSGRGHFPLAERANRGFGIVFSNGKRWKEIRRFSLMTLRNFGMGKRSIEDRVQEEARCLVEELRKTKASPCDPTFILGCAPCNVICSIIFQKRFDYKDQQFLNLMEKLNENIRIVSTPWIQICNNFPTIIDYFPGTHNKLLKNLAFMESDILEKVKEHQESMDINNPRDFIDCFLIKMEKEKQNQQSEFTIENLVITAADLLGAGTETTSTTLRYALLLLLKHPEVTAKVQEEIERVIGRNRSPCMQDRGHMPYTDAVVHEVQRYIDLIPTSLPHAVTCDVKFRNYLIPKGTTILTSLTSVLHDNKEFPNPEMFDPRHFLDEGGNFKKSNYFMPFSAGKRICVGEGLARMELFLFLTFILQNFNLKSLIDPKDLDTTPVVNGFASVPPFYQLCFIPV

**Q.** With N#Cc1c(N)n(CCOC(=O)c2ccc(Cl)cc2)c2nc3ccccc3nc12 as the molecule, how does the AC50 [1] read?
**A.** 3.18 µM (active)

**Q.** What about the EC50 (Protein RecA) of the same molecule?
**A.** 1.8 µM (active)

**Q.** Which AC50 (Cytochrome P450 2C19) does the source give for CCCCCCCCC[n+]1cccc2c3ccccc3ccc21 here?
**A.** 20 µM (inconclusive)

**Q.** And the EC50 [2]?
**A.** 0.868 µM (active)

**Q.** And the EC50 [3]?
**A.** 64.7 µM (active)

**Q.** What about the IC50 [4] of the same molecule?
**A.** 49.8 µM (inactive)

**Q.** What about the EC50 [5] of the same molecule?
**A.** 0.798 µM (active)

**Q.** What about the EC50 [6] of the same molecule?
**A.** 67.9 µM (active)

**Q.** Which results are given for O=C(C#Cc1ccccc1)Nc1cccc(F)c1?
**A.** AC50 [7]: 2 µM (active); AC50 (INS1): 8.05 µM (active); AC50 [8]: 2.35 µM (active)

**Q.** For c1ccc(C[C@H]2CN=C(Nc3ccccc3)N2CCCC2CCCC2)cc1, which CC50 [9] is on record?
**A.** > 40 µM (active)

**Q.** For COc1cc(-c2nnc(-c3cc(OC)c(OC)c(OC)c3)o2)cc(OC)c1OC, which EC50 [3] is on record?
**A.** 41 µM (active)

**Q.** And the IC50 (H9c2)?
**A.** > 79 µM (inactive)

**Q.** What about the EC50 [6] of the same molecule?
**A.** > 112 µM (not active)

**Q.** With Cc1ccc(OCc2cc(C(=O)N(C)Cc3cnc4ccccn34)no2)cc1C as the molecule, how does the CC50 [9] read?
**A.** > 40 µM (active)

**Q.** Which results are given for COCc1n[nH]c2c1C(c1ccccc1OC)C(C#N)=C(N)O2 (stereo not drawn)?
**A.** AC50 [1]: 22 µM (active); EC50 (Protein RecA): 4.77 µM (active)

**Q.** With CCOCCOC(=O)c1[nH]c2c(c1C)C(=O)CC(c1cccs1)C2 (stereo not drawn) as the molecule, how does the IC50 [4] read?
**A.** > 80 µM (inactive)

**Q.** For N#CCSc1nc2cc(C(=O)N3CCC(C(N)=O)CC3)ccc2c2nc3ccccc3n12, which IC50 (H9c2) is on record?
**A.** > 79 µM (inactive)

**Q.** For COc1cc(C#Cc2c(-c3cncn3C)n(C)c3ccc(-c4cnc(N5CCOCC5)nc4)cc23)cc(OC)c1, which CC50 [9] is on record?
**A.** 29.3 µM (active)

**Q.** Which AC50 [7] does the source give for NS(=O)(=O)c1ccc(CCNC(=O)CN2CCN(c3ccccc3O)CC2)cc1 here?
**A.** 3.94 µM (active)

**Q.** With OCCCNCc1ccc(N(c2ccccc2)c2ccccc2)cc1 as the molecule, how does the CC50 (Vero) read?
**A.** > 25 µM (active)

**Q.** Which IC50 (H9c2) does the source give for O=c1[nH]n(Cc2ccccc2)c(=O)c2ccccc12 here?
**A.** > 79 µM (inactive)

**Q.** Which AC50 (INS1) does the source give for S=C(Nc1ccc(Nc2ccccc2)cc1)Nc1ccccn1 here?
**A.** 6.34 µM (active)

**Q.** And the IC50 [10]?
**A.** > 66 µM (inactive)

**Q.** And the CC50 [9]?
**A.** > 40 µM (active)

**Q.** What about the IC50 [11] of the same molecule?
**A.** > 66 µM (inactive)
